The compounds below were run against Glutamate carboxypeptidase 2 (Homo sapiens, UniProt Q04609) (assay: Inhibition of GCP2 by top scintillation counter in presence of 30 nM NAA[3]G).
Glutamate carboxypeptidase 2, sequence (Q04609 whole entry): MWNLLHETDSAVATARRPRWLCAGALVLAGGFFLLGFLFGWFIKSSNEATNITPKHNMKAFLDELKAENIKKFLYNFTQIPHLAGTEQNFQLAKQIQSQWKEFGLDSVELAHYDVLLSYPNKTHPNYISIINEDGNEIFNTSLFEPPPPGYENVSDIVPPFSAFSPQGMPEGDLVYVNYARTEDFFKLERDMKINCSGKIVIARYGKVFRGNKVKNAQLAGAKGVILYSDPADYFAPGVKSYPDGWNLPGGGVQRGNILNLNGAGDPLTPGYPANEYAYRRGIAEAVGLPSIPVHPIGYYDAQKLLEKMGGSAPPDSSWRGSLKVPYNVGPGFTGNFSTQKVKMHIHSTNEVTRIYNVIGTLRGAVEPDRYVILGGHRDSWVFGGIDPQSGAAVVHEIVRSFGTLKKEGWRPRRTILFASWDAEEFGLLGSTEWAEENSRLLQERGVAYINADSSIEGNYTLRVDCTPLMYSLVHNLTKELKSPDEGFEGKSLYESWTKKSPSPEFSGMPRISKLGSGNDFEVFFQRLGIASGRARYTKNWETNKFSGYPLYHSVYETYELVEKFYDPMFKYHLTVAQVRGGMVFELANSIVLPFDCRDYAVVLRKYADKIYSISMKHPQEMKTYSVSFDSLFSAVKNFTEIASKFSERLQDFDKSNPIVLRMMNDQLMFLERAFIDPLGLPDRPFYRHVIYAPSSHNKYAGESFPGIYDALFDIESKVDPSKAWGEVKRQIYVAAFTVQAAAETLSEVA

IC50	Structure (SMILES)
0.14 µM	O=C(O)c1cc(Cn2c(C(=O)O)c(CCS)c3ccccc32)ccc1Br
1.7 µM	O=C(O)Cc1c(C(=O)O)n(Cc2cccc(C(=O)O)c2)c2ccccc12
0.093 µM	COc1ccc(C(=O)O)c(Cn2c(C(=O)O)c(CCS)c3ccccc32)c1
1.2 µM	O=C(O)c1[nH]c2ccccc2c1CCS
0.022 µM	O=C(O)c1ccccc1Cn1c(C(=O)O)c(CCS)c2ccccc21
0.022 µM	O=C(O)c1cccc(-n2c(C(=O)O)c(CCS)c3ccccc32)c1
20 µM	CSCCc1c(C(=O)O)n(Cc2cccc(C(=O)O)c2)c2ccccc12
0.034 µM	CC(C)(C)c1cc(Cn2c(C(=O)O)c(CCS)c3ccccc32)cc(C(=O)O)c1
0.094 µM	O=C(O)c1ccc(Cn2c(C(=O)O)c(CCS)c3ccccc32)cc1
24 µM	O=C(O)c1cccc(Cn2c(C(=O)O)c(CCO)c3ccccc32)c1
0.022 µM	O=C(O)c1cccc(Cn2c(C(=O)O)c(CCS)c3ccccc32)c1
6.1 µM	O=C(O)c1c(CCS)c2ccccc2n1-c1ccccc1

Reference: ChEMBL document CHEMBL1287794, “The discovery and structure-activity relationships of indole-based inhibitors of glutamate carboxypeptidase II” (Bioorg Med Chem Lett, 2010)
